“Also recorded” adds a separate entry of the source. Where two headings read alike, the source gives them in different places.
Columns and labels:
[1] = test system: subcutaneously-implanted tumors expressing EGFR with exon 20 insertions; conditions: cited from earlier work
[2] = Phase 1/2a study, pharmacokinetics; format: in vivo, human
Protocol: (§1) This is a Phase 1/2a, open-label, multicenter, first-in-human trial to evaluate the safety and tolerability, PK, PD, and preliminary efficacy of CLN-081 in patients with non-small cell lung cancer (NSCLC) harboring epidermal growth factor receptor (EGFR) exon 20 insertion mutations.
PK analysis has been performed with CLN-081 plasma concentrations determined at pre-dose, 0.5, 1, 2, 3, 4, 6, 8 and 24 hour % post initial dose on Cycle (C) I Day (D) I and C1D15. […] CLN-081 has typically been rapidly absorbed with tmax values ranging from 0.5 to 2 hours and a mean average terminal phase elimination half-life (t1/2) of approximately 4 hours.

[3] = test system: mutant EGFRs that possess mutations at L792 (L792H, L792F, L792Y) in exon 20 in combination with ex19del+T790M or L858R+T790M; conditions: cited from earlier work
[4] = test system: Ba/F3 harboring wild type EGFR; conditions: cited from earlier work
[5] = test system: NSCLC harboring EGFR exon 20 insertion mutations; assay: Phase 1/2a study, antitumor activity (RECIST v1.1); format: in vivo, human
Protocol: as §1
The antitumor activity of study treatment will be assessed according to RECIST v1.1 guideline
As part of this phase 1/2 study, dose levels including 30, 45, 65, 100 and 150 mg BID were explored during the escalation phases. Efficacy expansions were initiated at 30, 65 and 100 mg BID. A Phase 2a expansion was initiated at 100 mg BID after meeting protocol specified safety and efficacy criteria. Tumor assessments were performed at baseline, after 6 weeks of CLN-081 administration and every 9 weeks thereafter.

[6] = test system: mutant EGFRs that possess L718Q mutation in exon 18 in combination with ex19del+T790M or L858R+T790M; conditions: cited from earlier work
[7] = Phase 1/2a study, safety and adverse events (CTCAE v5); format: in vivo, human
Text: as §1
DLTs will be determined based on the incidence and intensity of AEs related to CLN-081 (excluding toxicities clearly related to disease progression or other inter-current illness) as defined below. Dose escalation decisions will be determined based on DLT that occur during the 21 days after initiation of CLN-081 dosing. AEs meeting the definition of a DLT that are observed after 21 days will be made available to the SRC in case a pattern of late toxicity emerges. Toxicity will be graded by the Common Toxicity Criteria for Adverse Events (CTCAE) v5.0. Patients who experience AEs meeting the criteria for DLT should pause treatment with CLN-081 pending management and resolution of the event, and assessment of the relationship of the AE to CLN-081 administration.
Safety and tolerability will be assessed by the incidence and severity of AEs as determined by CTCAE v5.

[8] = test system: KRAS mutant cell lines, NCI-H23 cells, and NCI-H460 cells; conditions: EGFR-independent cell growth; cited from earlier work
[9] = test system: mutant EGFRs that possess mutations in exon 18 or exon 21; conditions: cited from earlier work
[10] = unbound, 100 mg BID, patient 0102-001
[11] = unbound, 100 mg BID, patient 0104-005
[12] = unbound, 100 mg BID, patient 0701-001
[13] = baseline ex19del+T790M or L858R+T790M
[14] = 44/45 patients, all dose levels
[15] = G719A, G719S, G719C, E709K, E709A, L861Q

## C=CC(=O)N[C@H]1C=C(C)c2c(-c3cnc4ccccc4c3)c3c(N)ncnc3n2C1 [Compound 1, (S)—N-(4-amino-6-methyl-5-(quinolin-3-yl)-8,9-dihydropyrimido[5,4-b]indolizin-8-yl)acrylamide]
[1]; V769_D770insASV, D770_N771insSVD, H773_V774insNPH, dose-dependent
  antitumor efficacy: striking tumor growth inhibition and tumor regression effects
[1]; nude mice transplanted with NCI-H1975 EGFR D770_N771insSVD
  antitumor efficacy of twice-daily versus once-daily administration: not inferior
[2]; C1D1 to C1D15, listed as CLN-081
  change in systemic exposure levels / drug accumulation: Minimal to no increase; also recorded: no evidence of meaningful drug accumulation
[2]; across the dose range tested
  dose proportionality of Cmax and AUC: dose proportional increase
[2]; human, plasma, oral, 100 mg, 100 mg BID, patient 0102-001, read-out: T1/2 (converted)
  half-life: 3.6 h
[2]; human, plasma, oral, 100 mg, 100 mg BID, patient 0104-005, read-out: T1/2 (converted)
  half-life: 6.1 h
[2]; human, plasma, oral, 100 mg, 100 mg BID, patient 0701-001, read-out: T1/2 (converted)
  half-life: 3.6 h
[2]; human, plasma, po, oral BID, read-out: mean average terminal phase elimination half-life (t1/2) (converted)
  half-life: ~4 h
[2]; human, plasma, oral, 30-100 mg BID
  Tmax: 0.5 to 2 h
[2]; [10]
  uAUC*: 957 ng·h/mL
  uCmax: 260 ng/mL
[2]; [11]
  uAUC*: 1213 ng·h/mL
  uCmax: 274 ng/mL
[2]; [12]
  uAUC*: 1353 ng·h/mL
  uCmax: 418 ng/mL
[2]; unbound, 30 to 100 mg BID
  AUC0-8hr versus dose: generally increase with increasing dose
  Cmax versus dose: generally increase with increasing dose
[3]; L792H, L792F, L792Y each with ex19del+T790M or L858R+T790M
  potency in inhibiting the phosphorylation of mutant EGFRs: intensive cellular potency
[3]; [13]
  absolute activity and selectivity over baseline mutations compared with osimertinib, erlotinib and Afatinib: higher
[4]
  IC50: 597 nM
[5]; 30 mg BID (n = 8)
  Best response PR, %: 38%
  Best response SD, %: 62%
  Confirmed response, %: 38%
  Disease Control Rate (PR + SD ≥ 6 mo), %: 62%
[5]; 45 mg BID (n = 1)
  Best response SD, %: 100%
[5]; 65 mg BID (n = 14)
  Best response PD, %: (7) %
  Best response PR, %: (50) %
  Best response SD, %: (43) %
  Confirmed response, %: (14) %
  Disease Control Rate (PR + SD ≥ 6 mo), %: (57) %
  Pending confirmation, %: (21) %
  Unconfirmed response, %: (14) %
[5]; 100 mg BID (n = 13)
  Best response PR, %: (54) %
  Best response SD, %: (46) %
  Confirmed response, %: (46) %
  Disease Control Rate (PR + SD ≥ 6 mo), %: (69) %
  Unconfirmed response, %: (8) %
[5]; 100 mg BID, 7/13, 6 confirmed and 1 unconfirmed
  evaluable patients who achieved a PR: 54%
[5]; 150 mg BID (n = 6)
  Best response PR, %: 67%
  Best response SD, %: 33%
  Confirmed response, %: 33%
  Disease Control Rate (PR + SD ≥ 6 mo), %: 83%
  Pending confirmation, %: 33%
[5]; 21 of 42 evaluable patients across dose levels
  objective responses (all partial responses): 50%
[5]; 22/42 across dose levels
  response-evaluable patients who remained on treatment at the data cut-off: 52%
[5]; 27/42 across all doses
  Disease control (PR or SD ≥6 months): 64%
[5]; 41/42 across dose levels
  patients with stable disease (SD) or PR as the best response: 98%
[5]; across dose levels
  patients with disease progression as the best response: one
[5]; heavily-pretreated patients, across EGFR Ins 20 variants and dose levels
  antitumor activity: encouraging antitumor activity
[5]; in vivo
  dose cohorts in which partial responses were registered: all dose cohorts tested so far
  lowest dose cohort at which partial response was reported: 30 mg BID
[5]; of 21 responders, including 5 pending a confirmatory scan
  unconfirmed objective responses, patients: 8
[5]; of the 21 patients achieving an objective response
  confirmed objective responses, patients: 13
[5]; some patients
  response in patients previously treated with poziotinib and TAK788 (mobocertinib): partial responses
[6]; L718Q+ex19del+T790M or L718Q+L858R+T790M
  potency in inhibiting the phosphorylation of mutant EGFRs: intensive cellular potency
[6]; [13]
  absolute activity and selectivity over baseline mutations compared with osimertinib, erlotinib and Afatinib: higher
[7]; 4 patients
  patients with treatment-related discontinuations: 9%
[7]; 5 patients
  patients requiring dose reductions: 11%
[7]; 8/45 patients, all dose levels
  patients who experienced Gr ≥3 TRAEs: 18%
[7]; 20/45 patients, all dose levels
  patients who experienced grade ≥3 AEs: 44%
[7]; [14]
  patients who experienced a treatment related adverse event (TRAE), irrespective of grade: 98%
  patients who experienced an adverse event (AE), irrespective of grade or attribution: 98%
[7]; Gr 3 diarrhea at 150 mg BID, the highest dose cohort, listed as CLN-081
  patients with dose limiting toxicity (DLT): One and one
[7]; N = 45
  Grade ≥3 TRAEs in all patients: Anemia, %: 9%
  Grade ≥3 TRAEs in all patients: Diarrhea, %: 2%
  Grade ≥3 TRAEs in all patients: Increased ALT, %: 4%
  Grade ≥3 TRAEs in all patients: Increased AST, %: 4%
  Grade ≥3 TRAEs in all patients: Increased Amylase, %: 2%
  Grade ≥3 TRAEs in all patients: Neutropenia, %: 2%
  Grade ≥3 TRAEs in all patients: Stomatitis, %: 2%
[7]; all dose levels
  patients with Gr ≥3 treatment-related rash: no patients
  patients with treatment-related Gr 3 diarrhea: one
[7]; any grade, N = 45
  TRAEs in ≥15% of patients: Anemia, %: (18) %
  TRAEs in ≥15% of patients: Diarrhea, %: (22) %
  TRAEs in ≥15% of patients: Dry Skin, %: (16) %
  TRAEs in ≥15% of patients: Increased AST, %: (16) %
  TRAEs in ≥15% of patients: Nausea, %: (18) %
  TRAEs in ≥15% of patients: Paronychia, %: (22) %
  TRAEs in ≥15% of patients: Rash, %: (76) %
  TRAEs in ≥15% of patients: Stomatitis, %: (18) %
[7]; in vivo
  diarrhea compared to historical experience with other EGFR inhibitors: reduced frequency and severity of diarrhea
  most common AEs, regardless of attribution or grade: rash, anemia and diarrhea
  safety profile: acceptable safety profile
  safety profile at efficacious dose levels compared to other TKIs targeting EGFR exon 20 insertion mutations: superior safety profile
[7]; patient had also experienced pneumonitis on osimertinib
  patients who discontinued due to treatment-related Gr 2 pneumonitis: one
[8]
  GI50: > 3000 nM
[9]; G719A+T790M, L861Q+T790M
  inhibition against EGFRs harboring T790M and either exon 18 or exon 21 mutations: intensive inhibition
[9]; [15]
  activity compared with erlotinib and osimertinib: higher
  potency in inhibiting the phosphorylation of mutant EGFRs: intensive cellular potency

From patent publication US20230372346A1, “TREATMENT REGIMENS FOR EXON-20 INSERTION MUTANT EGFR CANCERS” (CULLINAN PEARL CORP., priority 2020, published 2023)
